This passage reports IC50 results from US10301325B2, “Quinoline derivative, and pharmaceutical composition, preparation method and use thereof” (SHANGHAI HAIJU BIOLOGICAL TECHNOLOGY CO., LTD., priority 2015, dated 2019).

pIC50: −log10 of the molar value.

In assay [1] the test system is human gastric cancer cells SNU-5 with high expression of c-Met. The assay can be described thus: c-Met cell proliferation inhibition test (CCK-8, 72 hours). Format: cell-based. The settings on record: SNU-5 cells. How it is done:
The inhibitory activity of the test compound on proliferation of human gastric cancer cells SNU-5 with high expression of c-Met was determined through the following in vitro cell assay, and the activity can be expressed by IC50 value. Specific experimental method can refer to Neru Munshi, Sebastien Jeay, Youzhi Li, et al., ARQ 197, a Novel and Selective Inhibitor of the Human c-Met Receptor Tyrosine Kinase with Antitumor Activity. Mol Cancer Ther 2010; 9:1544-1553, the content of which is incorporated herein by reference in its entirety. The general method is as follows: first, human tumor cells SNU-5 (purchased from the Institute of Biochemistry and Cell Biology) with high expression of c-Met was selected and inoculated on a 96-well culture plate at a suitable cell concentration (e.g., 5000 cells/ml culture medium), then they were diluted with IMDM culture medium containing 2% FBS to form a series of test compound solutions at gradient concentrations (generally 6 to 7 concentrations) and continuously incubated for 72 hours. After 72 hours, the activity of the test compound on inhibiting cell proliferation could be determined using the Cell Counting Kit-8 (CCK-8, purchased from DojinDo) method. The IC50 value can be calculated from the inhibitory values on cell proliferation of the test compound at a series of different concentrations.

The target of assay [2] is c-Met kinase (Homo sapiens, UniProt P08581). The assay can be described thus: c-Met kinase activity assay (HTRF). Format: biochemical. The settings on record: c-Met kinase from Carna Biosciences, read-out: IC50 (c-Met/BIO). How it is done:
The inhibitory ability of the compounds of the present invention on c-Met kinase activity was determined by Homogeneous Time-Resolved Fluorescence (HTRF), and was expressed by the median inhibitory concentration IC50 value of the compounds. The method was as follows: a series of compounds with gradient concentration were incubated with a specific concentration of the enzyme solution for 5 minutes at room temperature, after which an appropriate amount of enzyme reaction substrate and ATP were added to start the enzyme reaction process. After 30 minutes, an appropriate amount of stop solution and detection solution were added, and the mixture was incubated for 1 hour. Then, the enzyme activity at specific compound concentrations was measured at wavelengths of 665 nm and 620 nm on Envision 2104 Multilabel Microcell Detector of PerkinElmer Company, and the inhibitory activity of the compound at different concentrations on enzyme activity was calculated, then the result was fitted to calculate the IC50 value. The c-Met kinase used in this embodiment was purchased from Carna Biosciences, the test kit HTRF KinEASE-TK was purchased from Cisbio Bioassays Company, and ATP was purchased from Sigma Aldrich Company.
On the technique in general: In TR-FRET formats the signal depends on donor and acceptor labels being close together.

Chain of c-Met kinase (P08581 25-1390): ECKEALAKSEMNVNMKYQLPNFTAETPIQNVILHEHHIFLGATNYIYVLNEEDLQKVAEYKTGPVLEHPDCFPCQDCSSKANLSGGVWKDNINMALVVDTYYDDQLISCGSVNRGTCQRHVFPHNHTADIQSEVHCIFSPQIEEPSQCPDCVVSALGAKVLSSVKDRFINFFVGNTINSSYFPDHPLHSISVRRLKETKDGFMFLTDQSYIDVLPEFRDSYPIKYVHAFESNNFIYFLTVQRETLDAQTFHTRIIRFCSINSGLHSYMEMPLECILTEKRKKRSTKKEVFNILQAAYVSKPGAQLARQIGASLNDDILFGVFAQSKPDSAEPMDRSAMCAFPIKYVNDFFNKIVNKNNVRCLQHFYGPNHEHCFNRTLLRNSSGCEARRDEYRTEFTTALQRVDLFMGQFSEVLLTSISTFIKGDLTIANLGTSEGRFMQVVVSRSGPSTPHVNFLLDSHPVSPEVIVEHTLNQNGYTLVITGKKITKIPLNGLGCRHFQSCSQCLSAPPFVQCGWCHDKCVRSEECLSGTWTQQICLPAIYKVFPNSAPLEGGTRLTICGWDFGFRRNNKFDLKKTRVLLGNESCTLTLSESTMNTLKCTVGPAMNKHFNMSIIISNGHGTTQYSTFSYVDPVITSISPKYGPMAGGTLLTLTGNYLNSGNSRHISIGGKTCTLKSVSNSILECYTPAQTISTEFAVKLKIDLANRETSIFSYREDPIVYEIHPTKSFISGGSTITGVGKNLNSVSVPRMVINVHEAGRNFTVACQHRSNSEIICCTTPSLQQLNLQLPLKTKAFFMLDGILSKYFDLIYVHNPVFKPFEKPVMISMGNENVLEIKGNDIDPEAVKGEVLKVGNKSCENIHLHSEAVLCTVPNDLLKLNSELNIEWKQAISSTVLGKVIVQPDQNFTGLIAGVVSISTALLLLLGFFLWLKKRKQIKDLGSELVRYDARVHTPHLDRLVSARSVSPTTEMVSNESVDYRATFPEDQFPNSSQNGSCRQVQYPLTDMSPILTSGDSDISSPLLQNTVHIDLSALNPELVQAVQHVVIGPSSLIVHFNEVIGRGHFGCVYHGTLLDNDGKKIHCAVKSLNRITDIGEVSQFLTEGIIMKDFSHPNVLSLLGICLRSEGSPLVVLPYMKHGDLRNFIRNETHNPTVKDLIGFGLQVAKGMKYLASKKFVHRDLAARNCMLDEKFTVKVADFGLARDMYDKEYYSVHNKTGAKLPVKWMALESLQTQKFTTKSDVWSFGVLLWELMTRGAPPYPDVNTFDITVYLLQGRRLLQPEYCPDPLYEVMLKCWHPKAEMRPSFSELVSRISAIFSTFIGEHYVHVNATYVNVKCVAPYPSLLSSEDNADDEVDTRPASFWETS

In the case of `CN1C(=O)COc2c1cnc1cc(F)c(C(F)(F)c3nnc4ccc(-c5cnn(C)c5)nn34)cc21` [Embodiment 1, 9-{difluoro(6-(1-methyl-1H-pyrazol-4-yl)-[1,2,4]triazolo[4,3-b]pyridazin-3-yl)methyl}-8-fluoro-4-methyl-2H-[1,4]oxazino[3,2-c]quinolin-3(4H)-one], the pIC50 in assay [1] is 8.92; in assay [2], 9.00.

Consider `CN1C(=O)COc2c1cnc1cc(F)c(Sc3nnc4ccc(-c5cnn(C)c5)nn34)cc21` [Embodiment 2, 8-fluoro-4-methyl-9-{[6-(1-methyl-1H-pyrazol-4-yl)-[1,2,4]triazolo[4,3-b]pyridazin-3-yl]sulfanyl}-2H-[1,4]oxazino[3,2-c]quinolin-3 (4H)-one], for which the pIC50 in assay [1] is 8.55; in assay [2], 8.66.

Consider `Cn1cc(-c2ccc3nnc(C(F)(F)c4ccc5ncccc5c4)n3n2)cn1` [JNJ-38877605, reference compound], for which the pIC50 in assay [1] was 8.33; in assay [2], 8.31.
